According to US4550186A, “Binuclear copper (II) carboxylates formed from amine-carboxyboranes” (Duke University, priority 1983, dated 1985):

Experiments:
[1] = system: Ehrlich ascites carcinoma; test: Ehrlich ascites carcinoma growth in CF1 male mice; type: in vivo, mouse
Procedure: CF1 male mice (~30 g) were implanted with 2×10^6 Ehrlich ascites tumor cells, intraperitoneally on Day 0. Compound I was suspended by homogenation in 0.05% polysorbate.80-water and administered intraperitoneally at 10 and 20 mg/kg for 9 days to determine its effectiveness for inhibition of tumor growth. Mice were sacrificed on Day 10, and the ascites fluid was collected from the peritoneal cavity. The volume and ascrit (packed cell volume) were determined for each animal and the percent inhibition of tumor growth was calculated. For the metabolic studies, mice were treated on Days 8 and 9 with 10 mg/kg of Compound I, intraperitoneally. The animal was sacrificed on Day 10 and the ascites fluid harvested. The in vitro metabolic studies were performed at […] final concentration of Compound I.

[2] = doses of 150-200 mg/kg; cited from earlier work

Compound | Ascrit Packed Cell Vol. ([1]; Standard, dose not given) | Percent Inhibition ([1]; Standard, dose not given) [%] | Vol(ml) Ascites Fluid ([1]; Standard, dose not given) [mL] | No. of Animals Survived on Day 10 ([1]; mouse, in vivo) | lowers serum cholesterol [2] | lowers serum triglyceride levels [2] [%]
Sc1ncnc2nc[nH]c12 [6-mercaptopurine, reference compound] | 2.5 | 99.9 | 0.10 | 6 | – | –
CCOC(=O)C(C)(C)Oc1ccc(Cl)cc1 [clofibrate] | – | – | – | – | 6-15% | 25
